ChEMBL document CHEMBL1201862, “PubChem BioAssay data set” (2004)
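Compound exposure: 48 hours, 5 concentrations, 96-well plates. The concentration for 50% growth inhibition is given as GI50.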 Active and inactive are the calls of the source. No stated cut-off is given here; in the data, active = GI50 up to about 1.1 µM and inactive = higher.

Legend:
Assay in all cases: NCI tumour cell line growth inhibition, 48 h
Hs-578T = test system: Hs-578T
OVCAR-4 = test system: OVCAR-4
RPMI-8226 = test system: RPMI-8226
K562 = test system: K562
HCT-116 = test system: HCT-116
SF-539 = test system: SF-539
NCI-H23 = test system: NCI-H23
HT-29 = test system: HT-29
Malme-3M = test system: Malme-3M
SNB-75 = test system: SNB-75
SK-MEL-28 = test system: SK-MEL-28
OVCAR-8 = test system: OVCAR-8
HCT-15 = test system: HCT-15
SF-268 = test system: SF-268
NCI-H460 = test system: NCI-H460
SN12C = test system: SN12C
U-251 = test system: U-251
MDA-MB-435 = test system: MDA-MB-435
LOX IMVI = test system: LOX IMVI
BT-549 = test system: BT-549
T47D = test system: T47D
IGROV-1 = test system: IGROV-1
SK-MEL-2 = test system: SK-MEL-2
HCC 2998 = test system: HCC 2998
SNB-19 = test system: SNB-19
EKVX = test system: EKVX
HOP-92 = test system: HOP-92
A498 = test system: A498
TK-10 = test system: TK-10
MDA-N = test system: MDA-N
SW-620 = test system: SW-620
PC-3 = test system: PC-3
RXF 393 = test system: RXF 393
SK-MEL-5 = test system: SK-MEL-5
UACC-257 = test system: UACC-257
NCI/ADR-RES = test system: NCI/ADR-RES
ACHN = test system: ACHN
786-0 = test system: 786-0
COLO 205 = test system: COLO 205
CAKI-1 = test system: CAKI-1
A549 = test system: A549
MOLT-4 = test system: MOLT-4
NCI-H522 = test system: NCI-H522
SR = test system: SR
UACC-62 = test system: UACC-62
OVCAR-3 = test system: OVCAR-3
M14 = test system: M14
OVCAR-5 = test system: OVCAR-5
SF-295 = test system: SF-295
HOP-62 = test system: HOP-62
HL-60 = test system: HL-60
NCI-H226 = test system: NCI-H226
CCRF-CEM = test system: CCRF-CEM
MDA-MB-231 = test system: MDA-MB-231
MCF7 = test system: MCF7
DU-145 = test system: DU-145
SK-OV-3 = test system: SK-OV-3
KM12 = test system: KM12
UO-31 = test system: UO-31

## CCOC(=O)c1cc2c(OC)cc(OC)cc2oc1=O
Hs-578T
  GI50: 45.2 µM (inactive)
OVCAR-4
  GI50: > 100 µM (inactive)
RPMI-8226
  GI50: > 100 µM (inactive)
K562
  GI50: > 100 µM (inactive)
HCT-116
  GI50: > 100 µM (inactive)
SF-539
  GI50: > 100 µM (inactive)
NCI-H23
  GI50: 63.8 µM (inactive)
HT-29
  GI50: > 100 µM (inactive)
Malme-3M
  GI50: > 100 µM (inactive)
SNB-75
  GI50: 38.5 µM (inactive)
SK-MEL-28
  GI50: > 100 µM (inactive)
OVCAR-8
  GI50: > 100 µM (inactive)
HCT-15
  GI50: > 100 µM
SF-268
  GI50: 42.3 µM (inactive)
NCI-H460
  GI50: > 100 µM (inactive)
SN12C
  GI50: > 100 µM (inactive)
U-251
  GI50: 37.7 µM (inactive)
MDA-MB-435
  GI50: > 100 µM (inactive)
LOX IMVI
  GI50: 5.58 µM (inactive)
BT-549
  GI50: 76 µM (inactive)
T47D
  GI50: > 100 µM (inactive)
IGROV-1
  GI50: > 100 µM (inactive)
SK-MEL-2
  GI50: > 100 µM (inactive)
HCC 2998
  GI50: > 100 µM (inactive)
SNB-19
  GI50: 41.8 µM (inactive)
EKVX
  GI50: > 100 µM (inactive)
HOP-92
  GI50: 46.8 µM (inactive)
A498
  GI50: > 100 µM (inactive)
TK-10
  GI50: > 100 µM (inactive)
MDA-N
  GI50: > 100 µM (inactive)
SW-620
  GI50: > 100 µM (inactive)
PC-3
  GI50: > 100 µM (inactive)
RXF 393
  GI50: 57.3 µM (inactive)
SK-MEL-5
  GI50: > 100 µM (inactive)
UACC-257
  GI50: > 100 µM (inactive)
NCI/ADR-RES
  GI50: > 100 µM (inactive)
ACHN
  GI50: > 100 µM (inactive)
786-0
  GI50: 52.5 µM (inactive)
COLO 205
  GI50: > 100 µM (inactive)
CAKI-1
  GI50: 55.3 µM (inactive)
A549
  GI50: > 100 µM (inactive)
MOLT-4
  GI50: > 100 µM (inactive)
NCI-H522
  GI50: 52.1 µM (inactive)
SR
  GI50: > 100 µM (inactive)
UACC-62
  GI50: > 100 µM (inactive)
OVCAR-3
  GI50: > 100 µM (inactive)
M14
  GI50: > 100 µM (inactive)
OVCAR-5
  GI50: > 100 µM (inactive)
SF-295
  GI50: 50 µM (inactive)
HOP-62
  GI50: 65.3 µM (inactive)
HL-60
  GI50: > 100 µM (inactive)
NCI-H226
  GI50: > 100 µM (inactive)
CCRF-CEM
  GI50: > 100 µM (inactive)
MDA-MB-231
  GI50: 35.9 µM (inactive)
MCF7
  GI50: > 100 µM (inactive)
DU-145
  GI50: > 100 µM (inactive)

## CC(=O)O[C@H]1CC[C@@]2(C)C(=CC[C@@H]3[C@@H]2CC[C@]2(C)c4c(cc(C#N)c(=N)n4C(C)=O)C[C@@H]32)C1
Hs-578T
  GI50: 25.5 µM (inactive)
OVCAR-4
  GI50: 18.7 µM (inactive)
K562
  GI50: 4.06 µM (inactive)
HCT-116
  GI50: 14.8 µM (inactive)
NCI-H23
  GI50: 15.3 µM (inactive)
HT-29
  GI50: 17.9 µM (inactive)
Malme-3M
  GI50: 17.2 µM (inactive)
SNB-75
  GI50: 19.1 µM (inactive)
SK-MEL-28
  GI50: 18.7 µM (inactive)
SK-OV-3
  GI50: 6.7 µM (inactive)
OVCAR-8
  GI50: 16.7 µM (inactive)
HCT-15
  GI50: 15.2 µM
SF-268
  GI50: 27.9 µM (inactive)
NCI-H460
  GI50: 16.4 µM (inactive)
SN12C
  GI50: 17.4 µM (inactive)
U-251
  GI50: 29 µM (inactive)
MDA-MB-435
  GI50: 19.6 µM (inactive)
LOX IMVI
  GI50: 16.7 µM (inactive)
BT-549
  GI50: 15.4 µM (inactive)
T47D
  GI50: 17.6 µM (inactive)
IGROV-1
  GI50: 22.2 µM (inactive)
HCC 2998
  GI50: 23.2 µM (inactive)
SNB-19
  GI50: 28 µM (inactive)
EKVX
  GI50: 15.9 µM (inactive)
HOP-92
  GI50: 14.7 µM (inactive)
A498
  GI50: 30.5 µM (inactive)
TK-10
  GI50: 25.4 µM (inactive)
MDA-N
  GI50: 21 µM (inactive)
SW-620
  GI50: 19.4 µM (inactive)
PC-3
  GI50: 21.5 µM (inactive)
RXF 393
  GI50: 22.6 µM (inactive)
SK-MEL-5
  GI50: 15.5 µM (inactive)
UACC-257
  GI50: 19.1 µM (inactive)
NCI/ADR-RES
  GI50: 17.2 µM (inactive)
ACHN
  GI50: 20.1 µM (inactive)
786-0
  GI50: 20.5 µM (inactive)
COLO 205
  GI50: 16.1 µM (inactive)
CAKI-1
  GI50: 30.8 µM (inactive)
A549
  GI50: 23 µM (inactive)
MOLT-4
  GI50: 12.2 µM (inactive)
KM12
  GI50: 17.9 µM (inactive)
NCI-H522
  GI50: 17.9 µM (inactive)
SR
  GI50: 23.8 µM (inactive)
UACC-62
  GI50: 15.7 µM (inactive)
OVCAR-3
  GI50: 17.6 µM (inactive)
M14
  GI50: 16.9 µM (inactive)
OVCAR-5
  GI50: 27.4 µM (inactive)
UO-31
  GI50: 22 µM (inactive)
SF-295
  GI50: 11.4 µM (inactive)
HOP-62
  GI50: 24.2 µM (inactive)
HL-60
  GI50: 14.6 µM (inactive)
NCI-H226
  GI50: 27.4 µM (inactive)
CCRF-CEM
  GI50: 3.6 µM (inactive)
MDA-MB-231
  GI50: 31.1 µM (inactive)
MCF7
  GI50: 22.3 µM (inactive)
DU-145
  GI50: 27.1 µM (inactive)
